{"source": "patent US20220397573A1", "about": "“Biomolecular Detection Device” (Hoffmann-La Roche Inc., priority 2019, published 2022)", "test_system": "off-target adenosine receptors", "experiment": "Cross-sensitivity test: stimulation of off-target receptors in HEK293 cells on the biomolecular detection device", "type": "cell-based", "conditions": "5 μM NECA, FIG. 6a", "method": "SNAP-β2AR cells were grown to 60-80% confluency in T25 culture flasks, washed twice with warm phosphate-buffered saline (PBS), incubated with 1× Versene for 5 min and resuspended in cell culture medium. In order to decrease baseline signal contributions from non-functional cellular debris, the cells were centrifuged at 50 rpm for 1 min and resuspended in culture media two times sequentially. The cells were seeded to reach confluency on the waveguide in an incubation chamber containing 500 μl cell culture media. Cells were only seeded when viability exceeded 90%, as determined by a Countess automated cell counter (Invitrogen). Except for the real-time establishment of the transmembrane nanopattern, seeded cells were kept in a CO2 incubator at 37° C. for 2 h to allow cells adherence to the sensor chip (and covalent interaction of the SNAP-tag on the β2AR with the SNAP-tag substrate on the chip). The incubation chamber containing the cells was then washed twice with warm HBSS buffer (supplemented with 20 mM HEPES, pH 7.4) adjusted for DMSO and transferred to a modified F3000 ZeptoReader (Zeptosens) which was kept at 35° C. […] For all assays, the signal was monitored for 7 min (baseline measurement) before careful substitution of the buffer with buffer containing the β2AR ligand and monitored for another 21 min thereafter. […]", "data": [{"smiles": "CCNC(=O)[C@H]1O[C@@H](n2cnc3c(N)ncnc32)[C@H](O)[C@@H]1O", "note": "[NECA]", "values": [{"measurement": "signal (mass increase at the receptor relative to the initial mass) upon off-target stimulation", "result": "no significant signal change"}]}]}
